In general, IC50 refers to the concentration that gives 50% inhibition.

The target of this assay is human lung tryptase. Description: β-Tryptase In-Vitro Enzyme Assay. In kind it is biochemical. Particulars: human lung tryptase 1 nM, substrate H-D-HHT-Ala-Arg-pNa 500 μM, pH 7.4, room temperature. The protocol:
The β-tryptase assay was conducted with human lung tryptase (Cortex Biochem #CP3033) in an aqueous buffer (10 mM Tris, 10 mM Hepes, 150 mM NaCl, 0.1% PEG 8000, pH 7.4) using the chromogenic substrate H-D-HHT-Ala-Arg-pNa. […] Percent inhibition was calculated by comparing the initial reaction velocity of samples without inhibitor to those with inhibitor. The initial reaction velocities were analyzed using Microsoft Excel.
Compound `N=C(NO)c1ccc2c(c1)C1(CCN(C(=O)c3ccc(C#Cc4ccccc4)o3)CC1)CO2` [Cpd 306, 1-(5-phenylethynyl-furan-2-yl)carbonyl-5′-[hydroxyamino(imino)methyl]-spiro[piperidine-4,3′-(2H)-benzo[b]furan]] returned an IC50 of 71 nM.

Take `NCc1ccc2c(c1)C1(CCN(C(=O)c3ccc(F)c(F)c3)CC1)CO2` [Cpd 26, 1-(3,4-difluoro-phenyl)carbonyl-5′-aminomethyl-spiro[piperidine-4,3′-(2H)-benzo[b]furan]]: the IC50 is 230 nM.

The compound `NCc1ccc2c(c1)C1(CCN(C(=O)c3ccc(-c4cc(C(F)(F)F)ccc4Cl)o3)CC1)CO2` [Cpd 129, 1-[5-(2-chloro-5-trifluoromethyl-phenyl)-furan-2-yl]carbonyl-5′-aminomethyl-spiro[piperidine-4,3′-(2H)-benzo[b]furan]] had an IC50 of 99 nM.

The compound `COc1ccc(CC(=O)N2CCC3(CC2)COc2ccc(CN)cc23)cc1C` [Cpd 102, 1-(3-methyl-4-methoxy-benzyl)carbonyl-5′-aminomethyl-spiro[piperidine-4,3′-(2H)-benzo[b]furan]] registered an IC50 of 600 nM.

In turn, `NCc1ccc2c(c1)C1(CCN(C(=O)c3ccc(C(F)(F)F)cc3)CC1)CO2` [Cpd 71, 1-(4-trifluoromethyl-phenyl)carbonyl-5′-aminomethyl-spiro[piperidine-4,3′-(2H)-benzo[b]furan]] came in with an IC50 of 910 nM.

Turning to `NCc1ccc2c(c1)C1(CCN(C(=O)c3ccc(C#Cc4ccccc4F)o3)CC1)CO2` [Cpd 35, 1-[5-(2-fluoro-phenylethynyl)-furan-2-yl]carbonyl-5′-aminomethyl-spiro[piperidine-4,3′-(2H)-benzo[b]furan]], the IC50 came to 4.3 nM.

`CNNC(=O)CS(=O)(=O)N1CC2(CCN(C(=O)c3ccc(C#Cc4ccccc4)o3)CC2)c2cc(CN)ccc21` [Cpd 349, 1-(5-phenylethynyl-furan-2-yl)carbonyl-1′-(N′-methylhydrazino-carbonylmethyl)sulfonyl-5′-aminomethyl-spiro[piperidine-4,3′-(2H)-indole]]: the IC50 worked out at 16 nM.

`NCc1ccc2c(c1)C1(CCN(C(=O)c3cc(-c4ccccc4)cs3)CC1)CO2` [Cpd 288, 1-(4-phenyl-thien-2-yl)carbonyl-5′-aminomethyl-spiro[piperidine-4,3′-(2H)-benzo[b]furan]] came in with an IC50 of 280 nM.

In turn, `NCc1ccc2c(c1)C1(CCN(C(=O)c3ccc(Cl)cc3)CC1)CO2` [Cpd 44, 1-(4-chloro-phenyl)carbonyl-5′-aminomethyl-spiro[piperidine-4,3′-(2H)-benzo[b]furan]] displayed an IC50 of 230 nM.

With `NCc1ccc2c(c1)C1(CCN(C(=O)CCc3cccc(I)c3)CC1)CO2` [Cpd 97, 1-(3-iodo-phenethyl)carbonyl-5′-aminomethyl-spiro[piperidine-4,3′-(2H)-benzo[b]furan]], the IC50 is 1500 nM.

The compound `Cc1nc(-c2ccc(C(F)(F)F)cc2)sc1C(=O)N1CCC2(CC1)COc1ccc(CN)cc12` [Cpd 128, 1-[2-(4-trifluoromethyl-phenyl)-4-methyl-thiazol-5-yl]carbonyl-5′-aminomethyl-spiro[piperidine-4,3′-(2H)-benzo[b]furan]] registered an IC50 of 170 nM.

In the case of `NCc1ccc2c(c1)C1(CCN(C(=O)/C=C/c3ccoc3)CC1)CO2` [Cpd 251, (E)-1-(furan-3-ylethenyl)carbonyl-5′-aminomethyl-spiro[piperidine-4,3′-(2H)-benzo[b]furan]], the midpoint of inhibition, the IC50, lay at 1500 nM.

Compound `NCc1ccc2c(c1)C1(CCN(C(=O)c3ccc(I)cc3)CC1)CO2` [Cpd 49, 1-(4-iodo-phenyl)carbonyl-5′-aminomethyl-spiro[piperidine-4,3′-(2H)-benzo[b]furan]] showed an IC50 of 130 nM.

As to `NCc1ccc2c(c1)C1(CCN(C(=O)C=C3c4ccccc4-c4ccccc43)CC1)CO2` [Cpd 189, 1-(1-oxo-2-fluoren-9-ylidene-ethyl)-5′-aminomethyl-spiro[piperidine-4,3′-(2H)-benzo[b]furan]], half-maximal inhibition (IC50) required 380 nM.
